Test results taken from article PMC11513923, “Discovery of ZLC491 as a Potent, Selective, and Orally Bioavailable CDK12/13 PROTAC Degrader” (Journal of Medicinal Chemistry, 2024).
Entries after “also recorded” stand apart in the source; their conditions may differ. Read-outs that look alike come from different tables or passages of the source.

What was measured:
[1] = design: method as in doi:10.1200/JCO.2020.38.15_suppl.3500, PMID 26200936; conditions: cited from earlier work
MDA-MB-231 cells = assay: Drug combination assay with ZLC491; format: cell-based, human
Procedure: (A) Transcription level of DDR genes in MDA-MB-231 cells determined by RT-qPCR upon the treatment with vehicle or ZLC491 at different doses for 12 h, ROR1 was used as a negative control; (B) immunoblotting of DDR proteins in MDA-MB-231 cells after the treatment of ZLC491 at different doses for 48 h; (C) cell antiproliferative activity of ZLC491 in multiple TNBC cells as well as several noncancerous cells. Cells were treated with the compound for 5 days; (D,E) antiproliferative potency of cisplatin or olaparib alone or combined with ZLC491 at different doses in MDA-MB-231 cells for 5 days. Data are plotted using the percentage of absorbance relative to DMSO controls. (F) IC50 values and combination index (CI) in drug combination assay. In this model, CI scores estimate the interaction between the two drugs. If CI < 1, the drugs have a synergistic effect and if CI > 1, the drugs have an antagonistic effect. CI = 1 means the drugs have an additive effect. ^aThe drug combination in the table refers to the starting concentration of the two combined drugs, that would both go through serial dilution when treating cells.
Tested cells were plated in 96-well or 384-well plates and incubated at 37 °C with or without 5% CO2. […] Cell proliferation was measured 5 days after compound treatment using Cell Counting Kit-8 (Selleck) according to the manufacturer’s instructions. […]

[2] = system: TNBC cells and noncancerous cells; assay: Cell proliferation assay of the negative control in multiple TNBC and noncancerous cells; format: cell-based, human; conditions: multiple TNBC and noncancerous cell lines, 5 days
Procedure: The antiproliferative effects of ZLC491 against TNBC cells were also evaluated. […] We thus investigated the synergistic effects of ZLC491 with DNA cross-linker cisplatin.
Tested cells were plated in 96-well or 384-well plates and incubated at 37 °C with or without 5% CO2. After overnight incubation, serial dilutions of compounds were added to the plate. Cell proliferation was measured 5 days after compound treatment using Cell Counting Kit-8 (Selleck) according to the manufacturer’s instructions.
Figure S3. Immunoblotting of CCNK in MDA-MB-231 cells treated with increasing concentrations of ZLC491 for 15 h.
Figure S4. Cell antiproliferative activity of ZLC491N in multiple TNBC cells as well as noncancerous cells. Cells were treated with the compound for 5 days. […]

CDK12/13 = assay: Immunoblotting of CDK12/13 in MDA-MB-231 cells (time course, negative control, series comparison); format: cell-based, human; conditions: 1 μM, 10 h
Procedure: (§1) To further characterize the compound, we determined the half-degradation concentration (DC50) values of ZLC491 in MDA-MB-231 cells. […] We also treated MDA-MB-231 cells with 1 μM ZLC491 at various time points.
(§2) (A) Immunoblotting of CDK12 and CDK13 in MDA-MB-231 cells treated with increasing concentrations of ZLC491 for 15 h (left). Percent remaining CDK12 and CDK13 proteins were plotted for DC50 determination (right). Protein levels were quantified using ImageJ and normalized to corresponding α-tubulin, then plotted using Graphpad Prism 8.0. The data were representative of three independent experiments; (B) immunoblotting of CDK12 and CDK13 proteins in MDA-MB-231 cells treated with ZLC491 for various time points; immunoblotting of CDK12 and CDK13 in HCC38 (C) and MDA-MB-436 (D) cells treated with increasing concentrations of ZLC491 for 15 h. α-Tubulin was used as a loading control. TEXT PRINTED IN THE PICTURE: (A) ZLC491: MDA-MB-231: CDK12 DC50 = 0.032μM; MDA-MB-231: CDK13 DC50 = 0.028μM DOUBTS OF THE COPYIST ABOUT THIS PICTURE: ZLC491, CDK12 DC50: 0.032 read from small print, the digits 3 and 2 are uncertain / ZLC491, CDK13 DC50: 0.028 read from small print, the last digit may be 8, 6 or 3
Figure 4 ZLC491 induced CDK12/13 degradation in a CRBN- and proteasome-dependent fashion. […]

[3] = design: method as in PMID 35938508; conditions: rats; cited from earlier work
CDK12 = CDK12 (Homo sapiens, UniProt Q9NYV4); assay: CDK12 degradation in MDA-MB-231 cells by immunoblotting; format: cell-based; design: Immunoblotting of CDK12 and CDK13 in MDA-MB-231 cells treated with increasing concentrations of ZLC491 for 15 h; endogenous in cells; host or cells: MDA-MB-231; conditions: MDA-MB-231 cells, 0.3 μM, 15 h, immunoblotting, normalized against α-tubulin
Procedure: (§3) The degradation efficiency of the new molecules was assessed by immunoblotting after treatment with the compounds at 0.3 μM in MD-MBA-231 cells for 15 h.
as §1, §2
(§4) Generally, the tested cells were washed by ice-cold PBS buffer (Gibco) and lysed with an SDS lysis buffer (62.5 mM Tris, 2% w/v SDS, 10 glycerol, 50 mM DTT, 0.01% w/v bromophenol blue) on ice, after which the protein lysate samples were collected to 1.5 mL microcentrifuge tubes and treated with ultrasonic for 10 s, following with a 100 °C incubation for 10 min and a 4 °C centrifugation of 12000 rpm for 10 min. An equal amount of protein was loaded to 4–8% Bis-Tris gels and underwent an SDS-PAGE electrophoresis at 55V for 30 min and 95V for 90 min. Proteins on gels were then transferred to a polyvinylidene difluoride (PVDF) membrane (Bio-Rad) with a wet electro transfer system (Bio-Rad). The PVDF membrane was cut into bands and incubated in a blocking reagent (5% defatted milk powder dissolved in TBST) at room temperature for 1–2 h. Incubate membrane and primary antibody (at the appropriate dilution and diluent as recommended in the product webpage) at 4 °C for 12–14 h, followed with three times washes by TBST. The washed membranes were incubated in a secondary antibody solution (HRP-linked antirabbit IgG or antimouse IgG (CST), 1:2000 diluted into TBST) at room temperature for 2 h. Membranes were photographed in Amersham Imager 800 system using StarSignal plus regent (GenStar) or Omni-ECL reagent (EpiZyme). Compounds MG132, MLN4924, Bafilomycin A1 and pomalidomide were purchased from MedChemExpress (MCE) LLC.

CDK13 = target: T1, CDK13 (Homo sapiens, UniProt Q14004); assay: CDK13 degradation in MDA-MB-231 cells by immunoblotting; format: cell-based; conditions: MDA-MB-231 cells, 0.3 μM, 15 h, immunoblotting, normalized against α-tubulin;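 also: percent of CDK13 protein degraded relative to DMSO control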
T1 construct: Immunoblotting of CDK12 and CDK13 in MDA-MB-231 cells treated with increasing concentrations of ZLC491 for 15 h; endogenous in cells; host or cells: MDA-MB-231
Procedure: as §3, §1, §2, §4

T1 sequence (Q14004 whole entry): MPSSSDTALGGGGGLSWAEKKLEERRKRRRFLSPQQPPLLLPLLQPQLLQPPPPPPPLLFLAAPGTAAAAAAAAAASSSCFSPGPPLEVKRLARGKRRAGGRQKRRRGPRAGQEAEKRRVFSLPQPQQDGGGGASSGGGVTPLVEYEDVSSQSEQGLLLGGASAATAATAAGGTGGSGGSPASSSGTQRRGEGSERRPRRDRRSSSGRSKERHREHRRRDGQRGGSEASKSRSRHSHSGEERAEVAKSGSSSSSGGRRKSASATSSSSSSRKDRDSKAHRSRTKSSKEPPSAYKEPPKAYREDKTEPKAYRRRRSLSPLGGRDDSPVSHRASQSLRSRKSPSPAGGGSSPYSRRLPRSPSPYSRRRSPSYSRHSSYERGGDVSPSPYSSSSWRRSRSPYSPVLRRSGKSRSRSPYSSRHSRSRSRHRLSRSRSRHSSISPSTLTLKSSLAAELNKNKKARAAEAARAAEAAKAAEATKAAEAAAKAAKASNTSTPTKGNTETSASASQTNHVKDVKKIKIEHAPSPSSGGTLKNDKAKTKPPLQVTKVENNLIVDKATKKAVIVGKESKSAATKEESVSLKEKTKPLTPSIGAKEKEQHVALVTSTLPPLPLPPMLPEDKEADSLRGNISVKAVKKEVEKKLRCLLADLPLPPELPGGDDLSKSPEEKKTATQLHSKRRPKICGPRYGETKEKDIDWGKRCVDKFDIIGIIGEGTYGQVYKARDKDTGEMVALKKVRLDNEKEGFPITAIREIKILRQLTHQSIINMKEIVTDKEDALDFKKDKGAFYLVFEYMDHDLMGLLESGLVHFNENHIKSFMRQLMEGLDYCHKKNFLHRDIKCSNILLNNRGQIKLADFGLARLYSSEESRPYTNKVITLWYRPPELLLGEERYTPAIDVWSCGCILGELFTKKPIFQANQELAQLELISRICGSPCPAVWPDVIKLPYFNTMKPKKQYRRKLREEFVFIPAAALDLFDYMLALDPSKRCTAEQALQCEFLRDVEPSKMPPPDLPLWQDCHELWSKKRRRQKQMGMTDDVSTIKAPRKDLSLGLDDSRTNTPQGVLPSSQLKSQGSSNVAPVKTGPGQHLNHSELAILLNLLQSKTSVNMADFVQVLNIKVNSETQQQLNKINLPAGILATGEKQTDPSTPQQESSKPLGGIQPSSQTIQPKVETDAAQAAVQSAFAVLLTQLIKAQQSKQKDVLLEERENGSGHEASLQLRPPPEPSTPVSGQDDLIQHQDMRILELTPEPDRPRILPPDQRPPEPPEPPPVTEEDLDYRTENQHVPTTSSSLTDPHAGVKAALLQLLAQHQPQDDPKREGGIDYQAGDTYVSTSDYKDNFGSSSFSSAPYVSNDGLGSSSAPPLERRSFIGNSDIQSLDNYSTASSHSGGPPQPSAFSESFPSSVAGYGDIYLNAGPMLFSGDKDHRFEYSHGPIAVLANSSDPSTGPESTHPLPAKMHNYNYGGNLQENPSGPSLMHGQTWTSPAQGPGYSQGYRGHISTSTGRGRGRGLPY
T1 sequence (O75909 whole entry partner): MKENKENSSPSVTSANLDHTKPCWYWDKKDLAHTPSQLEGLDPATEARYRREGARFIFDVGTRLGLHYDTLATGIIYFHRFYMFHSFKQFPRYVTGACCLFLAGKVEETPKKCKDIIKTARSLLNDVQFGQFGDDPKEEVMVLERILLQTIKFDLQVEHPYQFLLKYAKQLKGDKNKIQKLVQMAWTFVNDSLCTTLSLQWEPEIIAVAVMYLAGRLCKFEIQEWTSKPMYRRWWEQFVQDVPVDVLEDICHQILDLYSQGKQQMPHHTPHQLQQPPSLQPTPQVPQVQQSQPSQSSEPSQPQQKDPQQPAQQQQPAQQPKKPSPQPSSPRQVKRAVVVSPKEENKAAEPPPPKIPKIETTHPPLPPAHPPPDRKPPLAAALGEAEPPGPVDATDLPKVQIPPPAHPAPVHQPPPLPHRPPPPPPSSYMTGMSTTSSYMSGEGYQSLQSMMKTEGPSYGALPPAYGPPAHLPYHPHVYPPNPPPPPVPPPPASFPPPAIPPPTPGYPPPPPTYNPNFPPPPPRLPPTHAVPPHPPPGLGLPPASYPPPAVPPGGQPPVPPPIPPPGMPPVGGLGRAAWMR
Chain of CDK12 (Q9NYV4 whole entry): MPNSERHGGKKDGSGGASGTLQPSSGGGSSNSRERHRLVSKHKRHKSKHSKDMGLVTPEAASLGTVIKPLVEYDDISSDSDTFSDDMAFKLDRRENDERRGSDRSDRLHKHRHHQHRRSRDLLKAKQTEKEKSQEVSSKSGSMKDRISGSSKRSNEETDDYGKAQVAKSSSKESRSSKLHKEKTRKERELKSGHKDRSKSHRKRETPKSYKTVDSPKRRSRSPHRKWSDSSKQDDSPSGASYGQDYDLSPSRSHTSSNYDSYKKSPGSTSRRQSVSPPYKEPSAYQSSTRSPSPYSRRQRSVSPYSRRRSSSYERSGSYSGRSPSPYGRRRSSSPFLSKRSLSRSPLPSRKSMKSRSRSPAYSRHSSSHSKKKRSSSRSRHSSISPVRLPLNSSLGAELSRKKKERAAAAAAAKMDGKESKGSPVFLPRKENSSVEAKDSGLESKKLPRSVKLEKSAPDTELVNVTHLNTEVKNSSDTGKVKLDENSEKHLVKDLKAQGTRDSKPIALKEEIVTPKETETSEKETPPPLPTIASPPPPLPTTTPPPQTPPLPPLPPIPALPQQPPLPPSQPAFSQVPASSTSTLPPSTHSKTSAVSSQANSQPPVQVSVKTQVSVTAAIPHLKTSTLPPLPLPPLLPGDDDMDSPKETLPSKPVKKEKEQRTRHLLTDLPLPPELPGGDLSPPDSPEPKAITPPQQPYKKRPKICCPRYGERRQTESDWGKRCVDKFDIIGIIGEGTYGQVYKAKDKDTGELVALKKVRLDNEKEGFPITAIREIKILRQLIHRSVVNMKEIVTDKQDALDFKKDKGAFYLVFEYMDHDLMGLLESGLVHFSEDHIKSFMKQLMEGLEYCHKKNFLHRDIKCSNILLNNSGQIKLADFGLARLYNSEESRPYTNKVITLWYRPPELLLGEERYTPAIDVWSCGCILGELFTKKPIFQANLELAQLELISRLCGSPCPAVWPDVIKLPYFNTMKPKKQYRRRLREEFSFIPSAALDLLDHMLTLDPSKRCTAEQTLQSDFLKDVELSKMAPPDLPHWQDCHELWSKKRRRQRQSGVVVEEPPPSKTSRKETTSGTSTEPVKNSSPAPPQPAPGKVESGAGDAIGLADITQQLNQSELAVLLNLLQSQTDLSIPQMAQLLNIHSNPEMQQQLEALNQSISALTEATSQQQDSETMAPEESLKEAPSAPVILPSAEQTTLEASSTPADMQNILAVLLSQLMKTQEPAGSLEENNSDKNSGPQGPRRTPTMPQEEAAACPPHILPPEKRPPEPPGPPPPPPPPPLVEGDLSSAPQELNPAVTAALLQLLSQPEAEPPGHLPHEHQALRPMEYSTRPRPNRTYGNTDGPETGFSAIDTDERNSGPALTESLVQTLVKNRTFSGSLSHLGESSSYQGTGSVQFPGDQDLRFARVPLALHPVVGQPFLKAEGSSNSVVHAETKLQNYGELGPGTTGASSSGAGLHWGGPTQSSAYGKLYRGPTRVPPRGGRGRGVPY
Chain of CDK12 (O75909 whole entry partner): as the sequence (O75909 whole entry partner) above

N#Cc1ccc(O[C@H]2CC[C@H](NC(=O)c3ccc(N4CCC(CN5CCN(c6cc7c(cc6F)C(=O)N(C6CCC(=O)NC6=O)C7=O)CC5)CC4)nn3)CC2)cc1Cl (stereo partly drawn) [ARV-110]
oral bioavailability [1]: good oral bioavailability

N.N.[Cl][Pt][Cl] [Cisplatin, cisplatin]
interaction with ZLC491 in dose–response assays (MDA-MB-231 cells; MDA-MB-231 cells, 5 days): potent synergy

O=C(c1cc(Cc2n[nH]c(=O)c3ccccc23)ccc1F)N1CCN(C(=O)C2CC2)CC1 [Olaparib, olaparib]
IC50 (MDA-MB-231 cells; Homo sapiens, 120 h, drug A alone, starting concentration 25 μM, MDA-MB-231, 5 days, read-out: IC50 (μM), Drug A: ZLC491 25μM: 0μM): 7.24 µM

CN1C(=O)CCC(N2C(=O)c3cc(F)c(N4CCC(N5CCN(c6ccc(N(C(=O)NCc7ccccc7)[C@H]7CC[C@H](Nc8ccc(C#N)cn8)CC7)cc6)CC5)CC4)cc3C2=O)C1=O (stereo partly drawn) [ZLC491N, 3-Benzyl-1-((1r,4r)-4-((5-cyanopyridin-2-yl)amino)cyclohexyl)-1-(4-(4-(1-(6-fluoro-2-(1-methyl-2,6-dioxopiperidin-3-yl)-1,3-dioxoisoindolin-5-yl)piperidin-4-yl)piperazin-1-yl)phenyl)urea]
antiproliferative effects [2]: no antiproliferative effects
degradative effect on CDK12/13 (CDK12/13): no degradative effect

N#Cc1ccc(N[C@H]2CC[C@H](N(C(=O)NCc3ccccc3)c3ccc(N4CCN(C(=O)CNc5ccc6c(c5)C(=O)N(C5CCC(=O)NC5=O)C6=O)CC4)cc3)CC2)nc1 (stereo partly drawn) [compound 3]
clearance [3]: high
oral bioavailability [3]: not orally bioavailable; also recorded: nondetectable
Protein Degradation (%DMSO control, 0.3 μM) CDK12 (CDK12): 75%
Protein Degradation (%DMSO control, 0.3 μM) CDK13 (CDK13): 84%
